We go through eight molecules from ChEMBL document CHEMBL1201862, “PubChem BioAssay data set” (2004).

Usually AC50 stands for the concentration giving half of the maximal activity seen.

The source made the active and inactive calls.

The target in assay [1] is T1, Histone-lysine N-methyltransferase NSD2 (Homo sapiens, UniProt O96028).
T1 sequence (O96028 whole entry): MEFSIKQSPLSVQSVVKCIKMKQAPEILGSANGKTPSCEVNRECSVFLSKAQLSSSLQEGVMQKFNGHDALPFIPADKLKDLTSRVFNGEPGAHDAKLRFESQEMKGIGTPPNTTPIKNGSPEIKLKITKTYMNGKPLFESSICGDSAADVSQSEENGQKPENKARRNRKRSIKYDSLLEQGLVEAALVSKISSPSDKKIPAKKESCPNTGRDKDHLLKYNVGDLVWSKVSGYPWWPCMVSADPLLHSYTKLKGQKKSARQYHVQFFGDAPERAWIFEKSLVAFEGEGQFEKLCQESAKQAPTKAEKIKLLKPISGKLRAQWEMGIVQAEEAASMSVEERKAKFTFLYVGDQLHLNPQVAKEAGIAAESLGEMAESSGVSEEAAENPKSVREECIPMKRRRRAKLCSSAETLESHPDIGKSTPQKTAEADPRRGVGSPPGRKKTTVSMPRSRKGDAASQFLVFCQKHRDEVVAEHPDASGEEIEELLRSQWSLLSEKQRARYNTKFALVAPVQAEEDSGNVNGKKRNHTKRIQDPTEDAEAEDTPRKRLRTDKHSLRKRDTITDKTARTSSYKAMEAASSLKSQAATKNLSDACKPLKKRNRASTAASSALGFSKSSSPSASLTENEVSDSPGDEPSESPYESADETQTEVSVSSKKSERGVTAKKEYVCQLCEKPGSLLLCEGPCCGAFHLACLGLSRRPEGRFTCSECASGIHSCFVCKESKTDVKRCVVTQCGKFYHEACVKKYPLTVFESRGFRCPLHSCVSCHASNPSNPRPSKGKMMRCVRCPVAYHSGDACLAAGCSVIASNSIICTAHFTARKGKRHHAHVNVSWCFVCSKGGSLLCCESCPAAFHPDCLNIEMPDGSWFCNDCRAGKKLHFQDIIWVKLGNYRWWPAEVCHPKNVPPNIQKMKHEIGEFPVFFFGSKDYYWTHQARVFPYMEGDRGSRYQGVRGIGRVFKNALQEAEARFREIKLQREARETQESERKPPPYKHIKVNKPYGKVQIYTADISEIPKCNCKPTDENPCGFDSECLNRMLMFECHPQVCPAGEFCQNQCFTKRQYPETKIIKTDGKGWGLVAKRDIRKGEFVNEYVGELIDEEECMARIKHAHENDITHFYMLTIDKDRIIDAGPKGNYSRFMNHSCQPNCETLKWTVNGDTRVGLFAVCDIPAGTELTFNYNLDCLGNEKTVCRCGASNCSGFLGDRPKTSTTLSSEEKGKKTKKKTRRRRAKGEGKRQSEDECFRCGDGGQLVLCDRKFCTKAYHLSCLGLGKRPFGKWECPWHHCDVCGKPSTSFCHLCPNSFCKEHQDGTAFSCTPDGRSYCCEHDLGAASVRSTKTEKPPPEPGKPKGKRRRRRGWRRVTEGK
Type of assay: biochemical.

In assay [2] the target is T2, Rac GTPase-activating protein 1 (Homo sapiens, UniProt Q9H0H5).
T2 sequence (Q9H0H5 whole entry): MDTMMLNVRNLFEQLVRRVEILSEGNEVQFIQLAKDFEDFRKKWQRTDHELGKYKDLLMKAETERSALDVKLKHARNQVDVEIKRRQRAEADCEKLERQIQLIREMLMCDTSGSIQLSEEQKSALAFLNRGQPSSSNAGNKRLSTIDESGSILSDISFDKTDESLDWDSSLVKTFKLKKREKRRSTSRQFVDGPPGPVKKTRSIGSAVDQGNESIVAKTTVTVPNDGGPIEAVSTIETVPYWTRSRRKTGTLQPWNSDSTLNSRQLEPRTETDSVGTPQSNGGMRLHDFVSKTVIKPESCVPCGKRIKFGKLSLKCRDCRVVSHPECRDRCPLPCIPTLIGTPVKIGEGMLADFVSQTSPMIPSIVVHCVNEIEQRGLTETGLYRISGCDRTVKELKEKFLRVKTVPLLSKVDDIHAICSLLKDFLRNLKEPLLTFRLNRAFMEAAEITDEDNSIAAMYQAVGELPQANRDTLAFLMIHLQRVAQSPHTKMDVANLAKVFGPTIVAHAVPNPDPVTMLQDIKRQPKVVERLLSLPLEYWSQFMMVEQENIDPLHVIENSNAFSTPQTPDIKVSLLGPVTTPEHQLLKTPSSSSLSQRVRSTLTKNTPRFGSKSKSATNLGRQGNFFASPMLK
Nature of the assay: MgcRacGAP GTPase-activating activity inhibitors, confirmation, biochemical, ADP Hunter fluorescence, primary and confirmatory (AID 624330). Type of assay: functional.

The next assay has as its target Albumin (Bos taurus, UniProt P02769). Nature of the assay: Counterscreen for inhibitors of T-cell receptor (TCR)-CD3 interaction: Fluorescence-based biochemical high throughput dose response assay to identify inhibitors of T-cell receptor (TCR)-CD3 interaction using a TAMRA-labeled BSA probe. The assay is classed as functional. A general note: Counterscreens check selectivity or assay interference.

Assay [3] can be described thus: T. cruzi growth inhibition in host cells, dose response, cell-based, plate reader, dry powder, set 2 (AID 652275). The assay is classed as functional.
Assay [4] in a line: HEK293T cell cytotoxicity, dose response, cytotoxicity control for HIV Vif inhibitor project, cherry-picks (AID 652208). Type of assay: functional, cell-based.
The target in assay [5] is T3, Corticotropin-releasing factor receptor 2/Corticotropin-releasing factor-binding protein (Homo sapiens, UniProt P24387+Q13324).
T3 sequence (Q13324 whole entry): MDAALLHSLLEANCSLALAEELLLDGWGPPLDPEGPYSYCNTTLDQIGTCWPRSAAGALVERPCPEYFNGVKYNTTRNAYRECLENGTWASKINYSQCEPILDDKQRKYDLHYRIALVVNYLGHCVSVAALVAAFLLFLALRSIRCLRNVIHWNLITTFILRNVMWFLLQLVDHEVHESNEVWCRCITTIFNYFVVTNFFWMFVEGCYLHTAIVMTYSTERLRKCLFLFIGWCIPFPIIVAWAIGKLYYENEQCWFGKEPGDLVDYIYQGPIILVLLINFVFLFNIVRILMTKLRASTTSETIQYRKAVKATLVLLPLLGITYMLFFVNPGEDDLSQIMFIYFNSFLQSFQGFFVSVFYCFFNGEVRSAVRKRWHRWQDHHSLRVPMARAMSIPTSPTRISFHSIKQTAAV
T3 sequence (P24387 whole entry): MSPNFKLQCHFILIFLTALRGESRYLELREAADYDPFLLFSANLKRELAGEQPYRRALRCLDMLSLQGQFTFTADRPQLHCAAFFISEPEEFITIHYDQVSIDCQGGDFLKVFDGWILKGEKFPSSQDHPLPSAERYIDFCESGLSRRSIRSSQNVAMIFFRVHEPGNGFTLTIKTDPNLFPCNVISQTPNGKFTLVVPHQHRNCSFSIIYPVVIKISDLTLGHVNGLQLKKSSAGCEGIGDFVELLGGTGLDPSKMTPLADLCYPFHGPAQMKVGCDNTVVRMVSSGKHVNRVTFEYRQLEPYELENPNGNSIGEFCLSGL
Description: Dose Response confirmation of uHTS hits for small molecule antagonists of the CRF-binding protein and CRF-R2 receptor complex. Type of assay: functional. The note with it: read-out: IC50_Mean.

In assay [6] the target is T3, Corticotropin-releasing factor receptor 2/Corticotropin-releasing factor-binding protein. Description: activators of CRF receptor 2 with binding protein – uHTS hits, confirmation (AID 602473). The note with it: read-out: EC50_Mean. The assay is classed as functional.
Assay [7] concerns the target T4, Short transient receptor potential channel 4 (Mus musculus, UniProt Q9QUQ5).
T4 sequence (Q9QUQ5 whole entry): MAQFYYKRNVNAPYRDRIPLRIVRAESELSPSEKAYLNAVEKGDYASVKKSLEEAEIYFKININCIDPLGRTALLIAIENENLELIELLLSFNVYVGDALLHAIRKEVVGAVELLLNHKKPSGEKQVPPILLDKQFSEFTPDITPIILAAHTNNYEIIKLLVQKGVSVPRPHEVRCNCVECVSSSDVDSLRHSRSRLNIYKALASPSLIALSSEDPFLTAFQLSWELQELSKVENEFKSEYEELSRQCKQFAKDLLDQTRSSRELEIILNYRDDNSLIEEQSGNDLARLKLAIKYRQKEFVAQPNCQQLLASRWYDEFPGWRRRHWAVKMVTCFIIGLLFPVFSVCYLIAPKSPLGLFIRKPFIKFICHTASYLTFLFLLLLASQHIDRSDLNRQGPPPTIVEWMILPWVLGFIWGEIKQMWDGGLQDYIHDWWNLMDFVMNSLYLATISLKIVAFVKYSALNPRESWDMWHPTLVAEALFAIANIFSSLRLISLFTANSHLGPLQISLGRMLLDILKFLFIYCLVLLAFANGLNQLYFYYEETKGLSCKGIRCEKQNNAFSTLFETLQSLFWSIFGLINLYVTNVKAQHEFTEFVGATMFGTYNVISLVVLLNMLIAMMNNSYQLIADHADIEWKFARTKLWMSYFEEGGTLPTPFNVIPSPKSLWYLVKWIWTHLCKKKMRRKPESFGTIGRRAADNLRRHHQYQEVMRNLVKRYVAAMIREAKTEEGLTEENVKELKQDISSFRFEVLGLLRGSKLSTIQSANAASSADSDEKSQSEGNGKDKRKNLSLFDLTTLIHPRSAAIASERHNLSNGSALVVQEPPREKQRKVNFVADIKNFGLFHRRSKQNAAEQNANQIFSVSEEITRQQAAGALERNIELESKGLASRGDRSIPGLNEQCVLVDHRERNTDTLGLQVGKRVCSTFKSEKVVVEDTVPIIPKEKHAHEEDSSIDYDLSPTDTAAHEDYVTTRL
Nature of the assay: mouse TRPC4 channel inhibitors, dose response, cell-based, HEK293 TRPC4/mu-opioid, Fluo-4 calcium (AID 434942).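 Note: potency of inhibitors blocking the TRPC4 calcium response.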 Type of assay: functional.

Assay [8] has as its target T5, DNA repair and recombination protein RAD54-like (Homo sapiens, UniProt Q92698).
T5 sequence (Q92698 whole entry): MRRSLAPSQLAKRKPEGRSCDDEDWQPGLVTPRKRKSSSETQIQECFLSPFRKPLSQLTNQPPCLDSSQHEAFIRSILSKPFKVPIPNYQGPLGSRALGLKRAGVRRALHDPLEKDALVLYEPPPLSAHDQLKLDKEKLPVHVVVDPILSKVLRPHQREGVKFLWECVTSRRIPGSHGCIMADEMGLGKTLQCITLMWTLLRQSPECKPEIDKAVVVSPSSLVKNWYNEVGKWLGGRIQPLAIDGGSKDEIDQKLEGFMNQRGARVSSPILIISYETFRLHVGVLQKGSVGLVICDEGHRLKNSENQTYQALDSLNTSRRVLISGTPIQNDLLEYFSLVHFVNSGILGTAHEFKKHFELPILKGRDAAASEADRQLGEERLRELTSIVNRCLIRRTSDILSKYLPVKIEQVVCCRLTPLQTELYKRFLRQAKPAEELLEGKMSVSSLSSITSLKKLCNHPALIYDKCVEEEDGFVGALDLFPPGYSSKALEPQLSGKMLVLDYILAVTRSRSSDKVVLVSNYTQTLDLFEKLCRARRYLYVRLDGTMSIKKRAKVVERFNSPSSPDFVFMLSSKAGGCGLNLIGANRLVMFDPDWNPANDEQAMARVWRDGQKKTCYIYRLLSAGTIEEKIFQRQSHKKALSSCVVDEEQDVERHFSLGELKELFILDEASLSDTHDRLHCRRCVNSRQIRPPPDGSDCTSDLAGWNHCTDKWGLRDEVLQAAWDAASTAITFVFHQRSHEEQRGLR
Nature of the assay: inhibitors of human RAD54 branch migration, confirmation, biochemical, fluorescence, cherry-picked samples, dose series (AID 651657). The assay is classed as functional.

The target of assay [9] is T6, Heat shock factor protein 1 (Mus musculus, UniProt P38532).
T6 sequence (P38532 whole entry): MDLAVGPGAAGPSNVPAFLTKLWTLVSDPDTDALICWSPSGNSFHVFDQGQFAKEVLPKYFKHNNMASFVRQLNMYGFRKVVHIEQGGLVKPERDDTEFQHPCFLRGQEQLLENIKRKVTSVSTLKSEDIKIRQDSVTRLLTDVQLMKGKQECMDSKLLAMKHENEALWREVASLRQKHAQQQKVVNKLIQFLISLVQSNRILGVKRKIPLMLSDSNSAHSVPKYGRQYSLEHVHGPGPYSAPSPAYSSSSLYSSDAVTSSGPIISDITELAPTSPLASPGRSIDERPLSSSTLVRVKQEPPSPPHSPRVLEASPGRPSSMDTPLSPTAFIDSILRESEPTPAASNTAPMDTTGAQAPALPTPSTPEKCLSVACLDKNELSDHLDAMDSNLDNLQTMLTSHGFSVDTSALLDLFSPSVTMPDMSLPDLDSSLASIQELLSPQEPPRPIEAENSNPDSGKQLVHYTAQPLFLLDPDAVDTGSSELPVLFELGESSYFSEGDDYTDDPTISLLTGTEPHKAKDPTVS
Description: HSF1 potentiators in luciferase reporter cells, confirmation, cell-based, NIH3T3, luminescence, dose retest (AID 435004).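 Note: stress induced by proteasome inhibitor MG132 added 30 min after compound; luciferase reporter driven by HSF1 response element in NIH3T3 cells; actives raise luminescence as potentiators of the MG132 stress response.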 The assay is classed as functional. (A reporter such as luciferase makes a cellular process visible.)

Chain of Albumin (P02769 whole entry): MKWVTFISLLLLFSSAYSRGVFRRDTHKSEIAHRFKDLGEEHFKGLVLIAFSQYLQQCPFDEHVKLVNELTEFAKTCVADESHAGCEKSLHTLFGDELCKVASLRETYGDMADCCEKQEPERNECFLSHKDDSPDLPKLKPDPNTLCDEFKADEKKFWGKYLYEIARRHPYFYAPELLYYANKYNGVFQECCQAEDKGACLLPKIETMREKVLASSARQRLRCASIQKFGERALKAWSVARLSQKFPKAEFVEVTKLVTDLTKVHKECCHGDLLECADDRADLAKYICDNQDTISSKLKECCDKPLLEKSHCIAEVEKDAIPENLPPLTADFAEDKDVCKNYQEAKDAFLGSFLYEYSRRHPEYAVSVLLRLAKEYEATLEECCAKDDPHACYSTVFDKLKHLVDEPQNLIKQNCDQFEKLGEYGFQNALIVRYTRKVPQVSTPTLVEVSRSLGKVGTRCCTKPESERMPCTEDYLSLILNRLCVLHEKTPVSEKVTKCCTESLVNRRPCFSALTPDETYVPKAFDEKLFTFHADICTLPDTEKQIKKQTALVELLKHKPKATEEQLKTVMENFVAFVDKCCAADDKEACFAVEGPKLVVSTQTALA

Take `CN(C)C=O.O=C(O)c1ccccc1NS(=O)(=O)c1ccc(N/N=C/c2ccc(O)c(O)c2)c([N+](=O)[O-])c1`: the AC50 in assay [1] is 1.71 µM (active). Besides, the IC50 in [2] was 60.7 µM (active); on Albumin, > 94.1 µM (inactive). On to `COCC(=O)N1CCCCN2[C@@H](CO)[C@H](c3ccc(-c4cccc(C)c4)cc3)[C@@H]2C1`, for which the AC50 in [3] is 1.42 µM (active).

Regarding `O=C(c1ccncc1)N1CCCCN2[C@@H](CO)[C@H](c3ccc(-c4ccccc4)cc3)[C@@H]2C1`, the AC50 in [3] is 4.5 µM (active).

As for `O=C(COc1ccc(-n2cnnn2)cc1)Nc1cc(Cl)cc(Cl)c1`, in assay [4], the half-maximal activity concentration (AC50) was 18.1 µM (active). Regarding `Cc1ccc(-c2cc(C(=O)NCc3ccccn3)c3ccccc3n2)cc1C`, the IC50 in assay [5] is > 47.1 µM (inactive). Besides, the AC50 in assay [4] was 32.7 µM (active). In assay [6], the EC50 was > 53 µM (inactive). In the case of `Cc1ccc2nc(C)cc(Nc3ccc4c(c3)OCCO4)c2c1`, the EC50 in assay [7] was 2.99 µM (active). The AC50 in assay [8] was 37.2 µM (active). Take `CC(Cc1ccccc1)NCC(=O)Nc1cc(N(C)C)nc2ccccc12` (centres undefined): the EC50 in assay [9] is > 260 µM (inactive). In addition, the concentration at half-maximal activity (AC50) in assay [8] is 42.1 µM (active). Regarding `COC[C@H](C)N1C[C@H](C)[C@@H](CN(C)Cc2ccc(Cl)cc2)Oc2c(NC(=O)c3ccncc3)cccc2C1=O`, the AC50 in [3] is 0.00139 µM (active).
